Results on two compounds are retold here after PMC6332320, “Factors Influencing Oral Bioavailability of Thai Mango Seed Kernel Extract and Its Key Phenolic Principles” (Molecules, 2015).

The conditions of data set [1]: cited from earlier work.
The subject of another data set is Caco-2 monolayer. As to the kind of experiment: Caco-2 transepithelial transport experiment. As to conditions: 20 µM. The class given is in vitro ADME, human. The protocol: The transport experiment using Caco-2 monolayer was performed according to the criteria in our laboratory as previously reported with slight modification. Briefly, the cell monolayers were prepared by seeding 400,000 cells onto a polycarbonate insert, which has a surface area and pore size of 4.2 cm^2 and 3 μm, respectively (Nunc™, Thermo Fisher Scientific, Waltham, MA, USA). Cells were maintained in a humidified atmosphere at 37 °C (90% humidity and 5% CO2) and fed every other day. After 19 to 22 days post-seeding, the cell monolayers were used in the experiments. Before the experiment, the monolayers were quickly washed twice with pre-warmed HBSS at pH 7.4 (37 °C). The integrity of each monolayer was then verified by measuring the transepithelial electrical resistance (TEER) using a Millicell® ERS meter (Millipore, Bedford, MA, USA), and layers with TEER values less than 400 Ω/cm^2 relative to that of the blank insert were discarded. Then, the monolayers were incubated with the HBSS buffer at 37 °C for 1 h, and the incubation buffer was then aspirated. The test compounds were dissolved in HBSS at pH 6 to obtain final concentrations for the individual compounds (20 μM), mixture (20 μM) and MSKE (0.25 mg/mL), which were then loaded onto the A or B side (2.6 mL) as the donor side. A 2.6 mL aliquot of HBSS at pH 6 without the test compounds was loaded into the other side as the receiver side. After incubation at 37 °C, 0.6 mL of sample was collected from the receiver side at indicated times (60, 120, 180 and 240 min), and the same volume of receiver medium was replaced after each sampling. At the end of the experiment, the cells were washed twice with ice-cold HBSS at pH 6. The cells in each well were then collected and resuspended in 600 μL of HBSS at pH 6, and sonicated in an ice water bath at an output of 9 W for 30 min to obtain the cell lysates. The lysate was divided into the following aliquots: (1) 20 μL for quantitative protein assessment using a BCA™ protein assay kit and (2) 580 μL for quantitative test compounds. The samples collected from the transport study were stored at −20 °C until the UPLC or LC–MS/MS analysis. The experiments were performed in triplicate.
The apparent permeability coefficient (Papp, cm/s) of each compound was calculated according to the following equation (Equation (1)): (1) Papp= dQ/dt×1/AC0 where dQ/dt is the compound permeation rate (nmol/s), A denotes the membrane surface area, and C0 is the initial concentration on the donor side (µM). The efflux ratio was calculated according to the following equation (Equation (2)): (2) Efflux ratio= Papp BA(mean)/Papp AB(mean) where Papp BA (mean) and Papp AB (mean) are the average apparent permeability coefficients of each compound from side B to side A, and from side A to side B, respectively.
A general note: Passage across Caco-2 layers is used to estimate intestinal permeability.

The conditions of data set [2]: rats, i.p., mixture of MG and PGG 20 mg/kg each, cited from earlier work.

Where “and” joins values, the source holds several entries; their conditions need not be identical. Equal entries are not always repeated. Where two headings read alike, the source gives them in different places.

On to `O=C(O)c1cc(O)c(O)c(O)c1` [GA, Gallic acid], for which, in data set [1] (rat, in vivo, po, 100 umol/kg), the peak concentration (Cmax) was 710 nM and the “elimination t1/2” value is on record as 24 min. In data set [1] (rats, p.o., GA as pure compound or component of rhubarb and grape seed extract, plasma), the Tmax entry is “approximately 60 min”. The “accumulation in the cells (cellular uptake)” value in the data set on Caco-2 monolayer (after individual bi-directional transport across Caco-2 monolayer) is given as “could not be detected”. In the data set with Caco-2 monolayer (human, Caco-2, 240 min, pH 6), the “Papp B to A” value is given as 1.87 ± 0.47 ×10^−6 cm/s.

Regarding `COC(=O)c1cc(O)c(O)c(O)c1` [MG, methyl gallate], in data set [2] (blood), the Cmax was 35 µM and 34.7 µM; the Tmax is 51 ± 42 min. In data set [2], the CL is on record as 159.91 ± 76.05 L/h/kg, the Ke is 0.056 ± 0.032 h⁻¹, the MRTlast is reported as 8.71 ± 2.53 h and the Vd is on record as 530.95 ± 247.54 L/kg. Besides, in data set [2], the t1/2 was 17.50 ± 12.25 h.

What is called Cmax is the peak of the concentration-time curve. One may read the Tmax as the time from dosing to the highest level.
